Patent EP0273199A2, “Uses of 3,4-diphenyl piperidine derivatives or medicines, 3,4-diphenyl piperidine derivatives, and process for their preparation” (LABORATOIRES HOECHST S.A., priority 1986, dated 1988)
Read-outs that look alike come from different tables or passages of the source.

Assays:
Apomorphin 16 mg/kg = assay: Antiapomorphine activity (apomorphine 16 mg/kg s.c., hypothermia); type: in vivo, Maus
Experimental: Zur Zeit 0 nach Ausgleich der Reaktaltemperaturen werden die Mäuse (6 pro Gruppe) in deren Beobachtung gestattende Einzelkäfige (11 x 3,5 x 4 cm) eingeetzt. 30 Minuten nach i.p. bzw. p.o. Verabreichung der Testsubstanz erhalten sie Apomorphin subkutan in einer Dosis von 16 mg/kg. Die Rektaltemperatur wird 30 Minuten nach dem Apomorphin gemessen. Die Kontrolltiere erhalten destilliertes Wasser statt der zu untersuchenden Verbindungen. Die bei diesen Kontrolltieren, die 16 mg/kg Apomorphin erhalten haben, beobachtete Hypothermie liegt im Durchschnitt bei 33°C. Für jede Verbindungsdosis berechnet man die prozentuale Hemmung der Hypothermie.

[1] = system: Apomorphin 1 mg.kg^-1 s.c.; assay: Apomorphine 1 mg/kg s.c. antagonism (no method given); type: in vivo; conditions: ip, Tabelle Ib; read-out: Erste wirksame Dosis Apomorphin 1 mg.kg^-1 s.c.
[2] = system: durch Oxotremorin induzierten Hypothermie; assay: Antioxotremorine activity (oxotremorine-induced hypothermia); type: in vivo, Maus; conditions: ip, read-out: Erste wirksame Dosis Oxotremorin
Experimental: Nach Ausgleich der Rektaltemperaturen erhalten Mäuse (6 pro Gruppe) entweder destillietes Wasser oder die verschiedenen zu untersuchenden Verbindungen i.p.
30 Minuten danach verabreicht man intraperitoneal Oxotremorin in einer Dosis von 0,5 mg/kg.
Die Mäuse werden dan beobachtet: Tremor wird je nach der Intensität von 0 bis 3 bewertet, und die Akinesie wird alle 10 Minuten über einen Zeitraum von 30 Minuten auf Vorliegen oder Fehlen bestimmt.
Außerdem beobachtet man 2 Stunden lang das Erscheinen peripherer Symptome (Tränen, Darmentleerung). Die Rektaltemperatur wird alle 30 Minuten über eine Zeitraum von 2 Stunden nach der Verabreichung des Oxotremorins gemessen.
Die eine antidepressive Aktivität besitzenden Produkte wirken der durch Oxotremorin induzierten Hypothermie entgegen.
Für jede Dosis der Verbindung berechnet man die prozentuale Hemmung der Hypothermie.

Motoraktivität = assay: Actimetry (motor activity, photocell actimeter); type: in vivo, Maus; conditions: for Aktimetrie: mouse, direction of change of motor activity
From the text: Die Motoraktivität wird mittels Photozellenaktimetern bestimmt (Boissier und Simon, Arch. Int. Pharmacodyn. 1965, 158, 212-221).
Die Mäuse (10 oder ein Vielfaches von 10 pro Gruppe) werden unmittelbar nach i.p. Verabreichung der zu untersuchenden Verbindungen in das Aktimeter eingesetzt. Die Motoraktivität wird danach bis zur 60. Minute gemessen. De Zähler werden nach 30 Minuten abgelesen und dann auf 0 zurückgestellt und im Verlauf von 30 Minuten alle 10 Minuten abgelesen.
Die Beweglichkeit der mit den verschiedenen Verbindungen behandelten Tiere wird mit derjenigen einer destilliertes Wasser erhaltenden Kontrollgruppe verglichen.
Die eine psychostimulierende Aktivität besitzenden Produkte verursachen eine Zunahme der Beweglichkeit.

Maus = assay: Tail suspension test; type: in vivo; conditions: ip
From the text: Schwanzaufhängungstest an der Maus wie von Stéru u.a. beschrieben (Psychopharmacology 85, 367-370, 1985).
Die Substanzen werden intraperitoneal 30 Minuten vor dem Test verabreicht und die Tiese isoliert (10 Mäuse pro Dosis).
Man bewertet die Dauer der Unbeweglichkeit, ausgedrückt in Sekunden über die 6 Minuten des Tests. Man untersucht auf eine Verkürzung dieser Unbeweglichkeitszeit.

[3] = system: durch Reserpin induzierten Hypothermie; assay: Antireserpine activity (reserpine-induced hypothermia); type: in vivo, Maus; conditions: ip
Experimental: Zur Zeit 0 erhalten die Mäuse intraperitoneal Reserpin (2,5 mg/kg).
4 Stunden danach, wenn die Hypothermie genügend stark erscheint (30 bis 33°C), verabreicht man die verschiedenen zu untersuchenden Verbindungen i.p. oder p.o. Alle 30 Minuten über einen Zeitraum von 2 Stunden mißt man die Rektaltemperatur mit einer auf konstante Tiefe eingeführten, ein Thermoelement tragenden Sonde. Die Rektaltemperatur der mit verschiedenen erfindungsgemäßen Verbindungen behandelten Tiere wird mit der Temperatur einer Kontrollgruppe verglichen, die destilliertes Wasser auf die gleiche Weise wie die untersuchten Verbindungen erhält.
Die Akinesie (fehlende Bewegungen) und Ptose (Öffnungsgrad des Augenlids von 0 bis 4 nach Rubin u.a 1957) werden ebenfalls alle 30 Minuten über einen Zeitraum von 2 Stunden bewertet.
Die eine antidepressive Aktivität besitzenden Produkte wirken der durch Reserpin induzierten Hypothermie entgegen. Für jede Dosis der verabreichten Verbindung berechnet man die prozentuale Hemmung der Hypothermie.

stereotypen Bewegungen = assay: Search for stereotyped movements; type: in vivo, Ratte; conditions: rat
From the text: Suche nach stereotypen Bewegungen an der Ratte
Unmittelbar nach i.p. oder p.o. Verabreichung der zu unteruchenden Verbindungen werden die Tiere (6 Ratten pro Gruppe) in 20 x 10 x 10 cm große, mit einem Edelstahldeckel mit Löchern von 1 cm Durchmesser versehene Einzelkäfige aus durchsichtigem Kunststoff eingesetzt. Die stereotypen Bewegungen (Bewegungen der Mundhöhle, Schnüffeln, Lecken oder Kauen) werden nach der von Simon und Chermat (J. Pharmacol. Paris, 1972, 3, 235-238) beschriebenen Methode alle 10 Minuten von 0 bis 3 bewertet, bis sie bei allen Tieren verschwunden sind.

Toxizität des Yohimbins = assay: Potentiation of yohimbine toxicity; type: in vivo, Maus; conditions: only or lowest value of the cell
Experimental: Wirkung auf die Toxizität des Yohimbins
Zur Zeit 0 erhalten die Mäuse entweder destilliertes Wasser oder verschiedene zu untersuchende Verbindungen i.p. 30 Minuten danach verabreicht man ihnen subkutan eine infratoxische Dosis von 25 mg/kg Yohimbinchlorhydrat.
Die Mortalität wird jede Stunde über einen Zeitraum von 4 Stunden verfolgt und dann nach 24 Stunden notiert.
Die eine antidepressive Aktivität besitzenden Produkte verursachen eine Potenzierung der Toxizität des Yohimbins.

[4] = Mus musculus, ip, read-out: Erste wirksame Dosis Apomorphin 16 mg/kg, mouse, i.p., only or lowest value of the cell
[5] = Mus musculus, read-out: Erste wirksame Dosis Reserpin, mouse, i.p., only or lowest value of the cell

SMILES	minimal effective dose (Apomorphin 16 mg/kg; ip, Tabelle Ib, read-out: Erste wirksame Dosis Apomorphin 16 mg.kg^-1 s.c.)	minimal effective dose (Apomorphin 16 mg/kg; ip, mouse, i.p., only or lowest value of the cell, read-out: Erste wirksame Dosis Apomorphin 16 mg/kg)	minimal effective dose (Apomorphin 16 mg/kg; mouse, further value in the same cell, route not stated (lowest = i.p.; p.o. also tested), read-out: Erste wirksame Dosis Apomorphin 16 mg/kg)	minimal effective dose [1]	minimal effective dose ([2]; Tabelle Ib)	minimal effective dose ([2]; mouse, i.p.)	Motilität (Motoraktivität; i.p., direction of change, Tabelle Ib)	minimal effective dose (Motoraktivität; ip, Tabelle Ib, read-out: Erste wirksame Dosis Motilität)	Aktimetrie (Motoraktivität)	minimal effective dose (Maus; Tabelle Ib, read-out: Erste wirksame Dosis T.S.T. Maus)	minimal effective dose (Maus; mouse, i.p., footnote of Tabelle 1, read-out: tail suspension test= positiv ab)	minimal effective dose ([3]; Tabelle Ib, read-out: Erste wirksame Dosis Reserpin)	minimal effective dose ([3]; mouse, i.p., only or lowest value of the cell, read-out: Erste wirksame Dosis Reserpin)	Stereotype Bewegung (stereotypen Bewegungen; 64 mg/kg i.p.)	minimal effective dose (Apomorphin 16 mg/kg; [4])	minimal effective dose ([2]; Mus musculus)	minimal effective dose [3, 5]	Erste wirksame Dosis Yohimbin (Toxizität des Yohimbins; mouse, i.p.)	Stereotype Bewegung (stereotypen Bewegungen; 64 mg/kg p.o.)	minimal effective dose (Toxizität des Yohimbins; Mus musculus, ip, read-out: Erste wirksame Dosis Yohimbin, mouse, i.p.)
FC(F)(F)c1ccc([C@@H]2CCNC[C@H]2c2ccccc2)cc1 (racemic) [Beispiel 3, trans-3-Phenyl-4-(4-trifluormethylphenyl)-piperidin-chlorhydrat]	2 mg/kg	2 mg/kg	4 mg/kg	2 mg/kg	8 mg/kg	8 mg/kg	↘	32 mg/kg	↘	4 mg/kg	≥ 4 mg/kg	1 mg/kg	1 mg/kg	0(64i.p.)						
c1ccc([C@@H]2CCNC[C@H]2c2ccccc2)cc1 (relative stereo) [21 (Base), trans-3,4-Diphenylpiperidin]															4 mg/kg	4 mg/kg	4 mg/kg	4 mg/kg	0(64p.o.)	
Clc1ccc(C2CCNCC2c2ccccc2)cc1 (stereo not drawn) [Beispiel 12, cis-4-(4-Chlorphenyl)-3-phenylpiperidin]									↘ =					0(64i.p.)	2 mg/kg	16 mg/kg	4 mg/kg			16 mg/kg
